In article PMC10499793 (Nature Communications, 2023):

Legend:
Conditions in all cases: 4-nitrothiophenol as nucleophile; 400 μM thiamine; pH 7.2, 37 °C
MxThi1 = molecular target: T1, MxThi1 (Myxococcus xanthus, UniProt Q1D3T2); assay: thiaminase I activity assay, 4-nitrothiophenol consumption at […] nm; assay type: biochemical
T1 construct: gene MXAN_4523
T1 sequence (Q1D3T2 36-418): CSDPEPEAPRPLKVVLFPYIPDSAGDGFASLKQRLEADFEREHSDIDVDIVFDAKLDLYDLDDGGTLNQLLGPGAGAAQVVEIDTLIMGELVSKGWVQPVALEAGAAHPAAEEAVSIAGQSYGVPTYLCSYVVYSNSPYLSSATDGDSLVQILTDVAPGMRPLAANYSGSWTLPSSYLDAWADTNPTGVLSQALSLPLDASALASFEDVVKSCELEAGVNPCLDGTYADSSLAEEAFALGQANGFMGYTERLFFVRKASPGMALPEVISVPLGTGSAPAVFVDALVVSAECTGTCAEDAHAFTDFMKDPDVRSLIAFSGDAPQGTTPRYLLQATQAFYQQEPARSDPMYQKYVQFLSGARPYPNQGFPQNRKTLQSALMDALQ

CbThi1 = molecular target: T2, CbThi1 (Clostridium botulinum, UniProt A5HZW3)
T2 construct: gene CBO0770

AcThi1 = molecular target: T3, AcThi1 (Archangium violaceum, UniProt A0ACG8CQS0); assay: thiaminase I activity assay, 4-nitrothiophenol consumption at […] nm; assay type: biochemical
T3 construct: gene JRI60_22580
T3 sequence (A0ACG8CQS0 24-424): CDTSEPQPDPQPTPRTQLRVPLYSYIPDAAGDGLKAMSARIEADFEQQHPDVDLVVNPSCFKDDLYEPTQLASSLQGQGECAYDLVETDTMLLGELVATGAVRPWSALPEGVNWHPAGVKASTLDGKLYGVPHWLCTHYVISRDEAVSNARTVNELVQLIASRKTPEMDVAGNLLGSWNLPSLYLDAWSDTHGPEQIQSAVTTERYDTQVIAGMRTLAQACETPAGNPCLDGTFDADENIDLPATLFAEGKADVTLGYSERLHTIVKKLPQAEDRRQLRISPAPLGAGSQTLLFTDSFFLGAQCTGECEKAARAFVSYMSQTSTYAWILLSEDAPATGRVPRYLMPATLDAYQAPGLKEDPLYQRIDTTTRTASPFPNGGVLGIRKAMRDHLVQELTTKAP

T2 sequence (A5HZW3 32-404 limits assumed): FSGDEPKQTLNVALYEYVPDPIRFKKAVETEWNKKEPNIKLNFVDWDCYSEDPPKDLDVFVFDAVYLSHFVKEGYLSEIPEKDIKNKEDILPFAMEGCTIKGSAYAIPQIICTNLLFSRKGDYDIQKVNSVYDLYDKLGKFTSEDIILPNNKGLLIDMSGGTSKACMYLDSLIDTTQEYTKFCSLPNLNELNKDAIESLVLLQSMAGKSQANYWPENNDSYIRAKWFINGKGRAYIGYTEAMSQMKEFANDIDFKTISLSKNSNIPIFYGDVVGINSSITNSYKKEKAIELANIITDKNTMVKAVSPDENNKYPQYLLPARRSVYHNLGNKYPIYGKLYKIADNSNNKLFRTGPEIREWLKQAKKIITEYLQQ

## Cc1ncc(C[n+]2csc(CCO)c2C)c(N)n1 [thiamine]
MxThi1
  thiaminase I activity assay, 4-nitrothiophenol consumption at 411 nm: All these recombinant proteins exhibited thiaminase I activity
CbThi1
  thiaminase I activity assay, 4-nitrothiophenol consumption at 411 nm: All these recombinant proteins exhibited thiaminase I activity
AcThi1
  thiaminase I activity assay, 4-nitrothiophenol consumption at 411 nm: All these recombinant proteins exhibited thiaminase I activity
